In patent US20250144132A1, “POLYSACCHARIDE COMPOUND WITH A DEFINED MOLECULAR STRUCTURE THAT CAN ELIMINATE THE TOXIC SIDE EFFECTS OF CHEMOTHERAPY DRUGS” (priority 2023, published 2025):
Read-outs that look alike come from different tables or passages of the source.

Columns and labels:
H22-bearing mice = type: in vivo
Description: A homogenate suspension of H22 hepatoma solid tumors was injected subcutaneously under the axilla of 65 healthy male C57 mice to create a solid tumor model. Once all mouse tumors averaged a volume of about 230 mm3, mice were randomized into groups based on tumor volume and were administered the respective drugs or drug solvents via oral gavage or intraperitoneal injection for 25 consecutive days. Longest and shortest diameters of tumors were measured every three days to calculate tumor volume, and mouse weights were recorded every three days. At the end of the experiment, tumors, spleens, and thymuses were harvested and weighed to calculate tumor, spleen, and thymus indices.
Based on previous experimental results, Ganoderma lucidum polysaccharide GLP-1 was administered at a low dose of 50 mg/kg and a high dose of 150 mg/kg as shown in Table 20.
(§1) Where TRTV is the relative tumor volume in the experimental group, and CRTV is the relative tumor volume in the model control group. Relative tumor volume (RTV)=Vt/V0, where Vt is the tumor volume on day t of dosing, and V0 is the tumor volume at the time of grouping.
(§2) Where T represents the average tumor weight in the treatment group, and C represents the average tumor weight in the model control group.
(§3) Spleen and thymus organ coefficients: After the last dose, spleen, thymus, and tumor weights are measured, and organ coefficients are calculated.
(§4) Tumor index (%)=(tumor weight/body weight)×100%.
(§5) Immune organ index (mg/g)=(organ mass/body weight)×1000.
Statistical analyses were performed using SPSS 17.0, with the significance level set at P≤0.05. Measurement data were expressed as mean±standard deviation (x±s). Normality and homogeneity of variance were tested using Leven's test. If data met normality and homogeneity of variance (P>0.05), one-way ANOVA and LSD test were used for statistical analysis. […] If the Kruskal-Wallis test was statistically significant (P<0.05), comparison analysis was performed using Dunnett's Test (a non-parametric method). Evaluation considered statistical differences and biological significance.

[1] = system: 4T1 breast tumor-bearing mice; type: in vivo, BALB/c mice
Description: A suspension of 4T1 breast cancer cells was injected subcutaneously into the left shoulder back of 60 healthy female BALB/c mice to create solid tumor models. When the mean tumor volume reached approximately 190 mm^3, the mice were randomized into groups based on tumor volume, and were administered the respective drugs or drug solvents via oral gavage or intraperitoneal injection over 18 consecutive days. Longest and shortest diameters of tumors were measured every three days to calculate tumor volume, and mouse weights were recorded every three days. At the end of the experiment, tumors, spleens, and thymuses were harvested and weighed to calculate tumor, spleen, and thymus indices.
Based on previous experimental results, Ganoderma lucidum polysaccharide GLP-1 was administered at a low dose of 50 mg/kg and a high dose of 150 mg/kg as shown in Table 27.
as §1, §2, §3, §4, §5
Statistical analyses were performed using SPSS 17.0, with the significance level set at P≤0.05. Measurement data were expressed as mean±standard deviation (˜±s). Normality and homogeneity of variance were tested using Leven's test. If data met normality and homogeneity of variance (P>0.05), one-way ANOVA and LSD test were used for statistical analysis. […] If the Kruskal-Wallis test was statistically significant (P<0.05), comparison analysis was performed using Dunnett's Test (a non-parametric method). Evaluation considered statistical differences and biological significance.

LLC cells = experiment: Cytotoxic effects of Ganoderma lucidum polysaccharide GLP-1 combined with cisplatin on LLC cells (MTT, absorbance at 570 nm); type: cell-based; conditions: 48 h, GLP-1 2 mg/mL
Description: LLC lung cancer cells were seeded in a 96-well cell culture plate at 3,000 cells per well and incubated at 37° C. in a 5% CO2 incubator for 24 h. […] The cultures were then incubated for another 48 h before measuring the absorbance at 570 nm.

LLC-bearing mice = conditions: cisplatin 4 mg/kg, Kanglaite 1404 mg/kg
[2] = cisplatin 3 mg/kg, GLP-1 low-dose 50 mg/kg
[3] = blood, flow cytometry, GLP-1 low-dose 130 mg/kg

N.N.[Cl][Pt][Cl] [Cisplatin, cisplatin]
Survival time (H22-bearing mice; 25 days of dosing, cisplatin 3 mg/kg, GLP-1 low-dose 50 mg/kg): 25 ± 0 days | Tumor growth inhibition rate vs. the model control group (H22-bearing mice; H22-bearing mice, end of experiment, cisplatin alone): 84.2% | Tumor growth inhibition rate compared to the model control group (H22-bearing mice; by tumor weight, cisplatin 3 mg/kg, GLP-1 low-dose 50 mg/kg): 84.2% | Mortality rate (H22-bearing mice; [2]): 0% | Number of deaths (H22-bearing mice; [2]): 0 | Number of deaths ([1]; 4T1 breast tumor-bearing mice, 8 animals, cisplatin 4 mg/kg i.p.): 1 | Survival time ([1]; 4T1 breast tumor-bearing mice, 18-day dosing, cisplatin 4 mg/kg i.p.): 17.1 ± 2.3 days | Tumor volume ([1]; 4T1 breast tumor-bearing mice, D0, cisplatin 4 mg/kg i.p.): 190.5 ± 34.8 mm^3 | Tumor growth inhibition rate vs. the model control group ([1]; 4T1 breast tumor-bearing mice, end of experiment, cisplatin 4 mg/kg i.p.): 71.6% | Tumor growth inhibition rate compared to the model control group ([1]; by tumor weight, cisplatin 4 mg/kg, GLP-1 low-dose 50 mg/kg): 71.6% | Inhibition rate (LLC cells): 35.2% | Tumor volume (LLC-bearing mice; D1, GLP-1 low-dose 130 mg/kg): 94.99 mm^3 | Tumor volume (LLC-bearing mice; D4, GLP-1 low-dose 130 mg/kg): 150.58 mm^3 | Tumor volume (LLC-bearing mice; D7, GLP-1 low-dose 130 mg/kg): 8.91 mm^3 | Tumor volume (LLC-bearing mice; D10, GLP-1 low-dose 130 mg/kg): 6.51 mm^3 | Tumor volume (LLC-bearing mice; D13, GLP-1 low-dose 130 mg/kg): 27.36 mm^3 | Tumor volume (LLC-bearing mice; D16, GLP-1 low-dose 130 mg/kg): 36.09 mm^3 | Tumor volume (LLC-bearing mice; D19, GLP-1 low-dose 130 mg/kg): 71.00 mm^3 | Tumor volume (LLC-bearing mice; D22, GLP-1 low-dose 130 mg/kg): 824.01 mm^3 | Tumor volume (LLC-bearing mice; D25, GLP-1 low-dose 130 mg/kg): 976.79 mm^3 | Tumor histopathology (LLC-bearing mice; H&E, x200): large areas of necrosis and hemorrhage were visible at the tumor center, with abundant tumor cells | Tumor coefficient (LLC-bearing mice; after last dose, GLP-1 low-dose 130 mg/kg): 7.528 ± 2.567 % | CD3^+/CD4^+ (LLC-bearing mice; [3]): 0.093 ± 0.025 | CD3^+/CD8^+ (LLC-bearing mice; [3]): 1.571 ± 0.406 | Tumor growth inhibition rate (LLC-bearing mice; by tumor weight vs model control, GLP-1 low-dose 130 mg/kg): 61.6% | Blood WBC level compared to the model control group (LLC-bearing mice; GLP-1 low-dose 130 mg/kg): significantly decreased | Body weight compared to the model control group (LLC-bearing mice; GLP-1 low-dose 130 mg/kg): significantly decreased after administration from D7 to D25 | Mortality rate (LLC-bearing mice; GLP-1 low-dose 130 mg/kg): 0% | Number of deaths (LLC-bearing mice; GLP-1 low-dose 130 mg/kg): 0 | Number of surviving animals (LLC-bearing mice; GLP-1 low-dose 130 mg/kg): 8
